Assay results published in patent publication US20090069398A1, “Pyrazolyl Carboxamides” (Bayer CropScience AG, priority 2005, published 2009).

What was measured:
Alternaria solani = assay: Alternaria test (tomato)/protective; type: in vivo; details: protective, application rate 500 ppm, evaluation 7 days after inoculation
Protocol: [table] To produce a suitable preparation of active compound, 1 part by weight of active compound is mixed with the stated amounts of solvent and emulsifier, and the concentrate is diluted with water to the desired concentration. […] 1 day after the treatment, the plants are inoculated with a spore suspension of Alternaria solani and then remain at 100% relative humidity and 20° C. for 24 h. The plants then remain at 96% relative atmospheric humidity and a temperature of 20° C. Evaluation is carried out 7 days after the inoculation. 0% means an efficacy which corresponds to that of the control, whereas an efficacy of 100% means that no infection is observed.

[1] = log P determination by HPLC on reversed-phase column (EEC Directive 79/831 Annex V.A8); type: physicochemical; details: reversed-phase HPLC column (C 18); pH 2.3; HPLC reversed-phase C 18, 43° C.; 0.1% aqueous phosphoric acid/acetonitrile
Protocol: The log P values given in the Tables and Preparation Examples above are determined in accordance with EEC Directive 79/831 Annex V.A8 by HPLC (High Performance Liquid Chromatography) on reversed-phase column (C 18). Temperature: 43° C. The determination is carried out in the acidic range at pH 2.3 using the mobile phases 0.1% aqueous phosphoric acid and acetonitrile; linear gradient from 10% acetonitrile to 90% acetonitrile. Calibration is carried out using unbranched alkan-2-ones (having 3 to 16 carbon atoms) with known log P values (determination of the log P values by the retention times using linear interpolation between two successive alkanones).

Pyrenophora teres = Pyrenophora teres test (barley)/protective; type: in vivo; details: protective, application rate 1000 ppm, evaluation 8 days after inoculation
Protocol: (§1) [table] To produce a suitable preparation of active compound, 1 part by weight of active compound is mixed with the stated amounts of solvent and emulsifier, and the concentrate is diluted with water to the desired concentration. To test for protective activity, young plants are sprayed with the active compound preparation at the stated application rate. After the spray coating has dried on, the plants are sprayed with a conidia suspension of Pyrenophora teres. The plants remain in an incubation cabin at 20° C. and 100% relative atmospheric humidity for 48 hours. The plants are then placed in a greenhouse at a temperature of about 20° C. and a relative atmospheric humidity of 80%. Evaluation is carried out 8 days after the inoculation. 0% means an efficacy which corresponds to that of the control, whereas an efficacy of 100% means that no infection is observed.

Botrytis cinerea = assay: Botrytis test (cucumber)/protective; type: in vivo; details: protective, application rate 500 ppm, evaluation 5-6 days after inoculation
Protocol: [table] To produce a suitable preparation of active compound, 1 part by weight of active compound is mixed with the stated amounts of solvent and emulsifier, and the concentrate is diluted with water to the desired concentration. To test for protective activity, young cucumber plants are sprayed with the active compound preparation at the stated application rate. 1 day after the treatment, the plants are inoculated with a spore suspension of Botrytis cinerea and then remain at 100% relative humidity and 20° C. for 48 h. The plants then remain at 96% relative atmospheric humidity and a temperature of 13° C. Evaluation is carried out 5-6 days after the inoculation. 0% means an efficacy which corresponds to that of the control, whereas an efficacy of 100% means that no infection is observed.

Puccinia recondita = assay: Puccinia test (wheat)/protective; type: in vivo; details: protective, application rate 1000 ppm, evaluation 10 days after inoculation
Protocol: as §1, with “of Puccinia recondita.” for “of Pyrenophora teres.”, “of 80% to promote the development of rust pustules.” for “of 80%.”, “out 10” for “out 8”

## CCn1cc(C(=O)Nc2ccc(F)cc2-c2ccc(Cl)c(Cl)c2)c(C(F)F)n1 [drawing 19]
Alternaria solani
  Efficacy in %: 95%

## Cn1nc(C(C)(C)C)c(C(=O)Nc2ccc(F)cc2-c2ccc(Cl)c(Cl)c2)c1Cl [Example 5]
[1]
  chromatographic logP: 4.53

## CCn1cc(C(=O)Nc2ccc(F)cc2-c2ccc(Cl)c(F)c2)c(C(F)F)n1 [Example 2, N-(4′-chloro-3′,5-difluorobiphenyl-2-yl)-3-(difluoromethyl)-1-ethyl-1H-pyrazole-4-carboxamide]
[1]
  chromatographic logP: 3.34

## CCn1cc(C(=O)Nc2ccc(F)cc2-c2ccc(Cl)c(Cl)c2)c(C(F)F)n1 [drawing 17]
Pyrenophora teres
  Efficacy in %: 100%

## Cn1nc(C(C)(C)C)c(C(=O)Nc2ccc(F)cc2-c2ccc(Cl)c(Cl)c2)c1Cl [drawing 18]
Botrytis cinerea
  Efficacy in %: 70%

## CCn1cc(C(=O)Nc2ccc(F)cc2-c2ccc(Cl)c(Cl)c2)c(C(F)F)n1 [Example 1, N-(3′,4′-dichloro-5-fluorobiphenyl-2-yl)-3-(difluoromethyl)-1-ethyl-1H-pyrazole-4-carboxamide]
[1]
  chromatographic logP: 3.61

## CCn1cc(C(=O)Nc2ccc(F)cc2-c2ccc(Cl)c(F)c2)c(C(F)F)n1 [drawing 20]
Alternaria solani
  Efficacy in %: 95%

## CCn1cc(C(=O)Nc2ccc(F)cc2-c2ccc(Cl)c(Cl)c2)c(C(F)F)n1 [drawing 16]
Puccinia recondita
  Efficacy in %: 95%
